Results as given in patent publication US20170334891A1, “ENHANCER OF ZESTE HOMOLOG 2 INHIBITORS” (GLAXOSMITHKLINE INTELLECTUAL PROPERTY (NO.2) LIMITED, priority 2014, published 2017).

Biological target: T1, EZH2 within the PRC2 complex (Homo sapiens, UniProt Q15910)
T1 construct: FLAG; made in house; host or cells: Sf9 cells
Test: EZH2 methyltransferase scintillation proximity assay (SPA)
Assay type: biochemical
Conditions: Human PRC2 5 member complex (FLAG-EZH2, EED, SUZ12, RbAp48, AEBP2), 1 nM enzyme, biotinylated histone H3K27 peptide, 3H-SAM, 60 min at room temperature
Procedure: Compounds contained herein were evaluated for their ability to inhibit the methyltransferase activity of EZH2 within the PRC2 complex. Human PRC2 complex was prepared by co-expressing each of the 5 member proteins (FLAG-EZH2, EED, SUZ12, RbAp48, AEBP2) in Sf9 cells followed by co-purification. Enzyme activity was measured in a scintillation proximity assay (SPA) where a tritiated methyl group is transferred from 3H-SAM to a lysine residue on a biotinylated, unmethylated peptide substrate derived from histone H3. The peptides were captured on streptavidin-coated SPA beads and the resulting signal was read on a ViewLux plate reader.
• 1. Prepare 10 mM stock of compounds from solid in 100% DMSO. • 2. Set up an 11-point serial dilution (1:4 dilution, top concentration 10 mM) in 100% DMSO for each test compound in a 384 well plate leaving columns 6 and 18 for DMSO controls. • 3. Dispense 10 nL of compound from the dilution plate into reaction plates (Corning, 384-well polystyrene NBS, Cat#3673).
Prepare the following solutions: • 1. 1× Base Buffer, 50 mM Tris-HCl, pH 8, 2 mM MgCl2: Per 1 L of base buffer, combine 1 M Tris-HCl, pH 8 (50 mL), 1 M MgCl2 (2 mL), and distilled water (948 mL). • 2. 1× Assay Buffer: Per 10 mL of 1× Assay Buffer, combine 1× Base Buffer (9.96 mL), 1 M DTT (40 uL), and 10% Tween-20 (1 uL) to provide a final concentration of 50 mM Tris-HCl, pH 8, 2 mM MgCl2, 4 mM DTT, 0.001% Tween-20. • 3. 2× Enzyme Solution: Per 10 mL of 2× Enzyme Solution, combine 1× Assay Buffer (9.99 mL) and 3.24 uM EZH2 5 member complex (6.17 uL) to provide a final enzyme concentration of 1 nM. • 4. SPA Bead Solution: Per 1 mL of SPA Bead Solution, combine Streptavidin coated SPA beads (PerkinElmer, Cat# RPNQ0261, 40 mg) and 1× Assay Buffer (1 mL) to provide a working concentration of 40 mg/mL. • 5. 2× Substrate Solution: Per 10 mL of 2× Substrate Solution, combine 40 mg/mL SPA Bead Solution (375 uL), 1 mM biotinylated histone H3K27 peptide (200 uL), 12.5 uM 3H-SAM (240 uL; 1 mCi/mL), 1 mM cold SAM (57 uL), and 1× Assay Buffer (9.13 mL) to provide a final concentration of 0.75 mg/mL SPA Bead Solution, 10 uM biotinylated histone H3K27 peptide, 0.15 uM 3H-SAM (˜12 uCi/mL 3H-SAM), and 2.85 uM cold SAM. • 6. 2.67× Quench Solution: Per 10 mL of 2.67× Quench Solution, combine 1× Assay Buffer (9.73 mL) and 10 mM cold SAM (267 uL) to provide a final concentration of 100 uM cold SAM.
• 1. Stamp 10 nL/well of 1000× Compound to test wells (as noted above). • 2. Stamp 10 nL/well of 100% DMSO to columns 6 & 18 (high and low controls, respectively).
• 1. Dispense 5 uL/well of 1× Assay Buffer to column 18 (low control reactions). • 2. Dispense 5 uL/well of 2× Substrate Solution to columns 1-24 (note: substrate solution should be mixed to ensure homogeneous bead suspension before dispensing into matrix reservoir). • 3. Dispense 5 uL/well of 2× Enzyme Solution to columns 1-17, 19-24. • 4. Incubate the reaction for 60 min at room temperature.
• 1. Dispense 6 uL/well of the 2.67× Quench Solution to columns 1-24. • 2. Seal assay plates and spin for ˜1 min at 500 rpm. • 3. Dark adapt plates in the ViewLux instrument for 15-60 min.
• 1. Read the assay plates on the Viewlux Plate Reader utilizing the 613 nm emission filter or clear filter (300 s exposure). Reagent addition can be done manually or with automated liquid handler.
Percent inhibition was calculated relative to the DMSO control for each compound concentration and the resulting values were fit using standard IC50 fitting parameters within the ABASE data fitting software package.
The IC50 values of <10 nM indicate that the activity of compound was approaching the limit of detection in the assay. Repeating the assay run(s) may result in somewhat different IC50 values.

T1 sequence (Q15910 whole entry): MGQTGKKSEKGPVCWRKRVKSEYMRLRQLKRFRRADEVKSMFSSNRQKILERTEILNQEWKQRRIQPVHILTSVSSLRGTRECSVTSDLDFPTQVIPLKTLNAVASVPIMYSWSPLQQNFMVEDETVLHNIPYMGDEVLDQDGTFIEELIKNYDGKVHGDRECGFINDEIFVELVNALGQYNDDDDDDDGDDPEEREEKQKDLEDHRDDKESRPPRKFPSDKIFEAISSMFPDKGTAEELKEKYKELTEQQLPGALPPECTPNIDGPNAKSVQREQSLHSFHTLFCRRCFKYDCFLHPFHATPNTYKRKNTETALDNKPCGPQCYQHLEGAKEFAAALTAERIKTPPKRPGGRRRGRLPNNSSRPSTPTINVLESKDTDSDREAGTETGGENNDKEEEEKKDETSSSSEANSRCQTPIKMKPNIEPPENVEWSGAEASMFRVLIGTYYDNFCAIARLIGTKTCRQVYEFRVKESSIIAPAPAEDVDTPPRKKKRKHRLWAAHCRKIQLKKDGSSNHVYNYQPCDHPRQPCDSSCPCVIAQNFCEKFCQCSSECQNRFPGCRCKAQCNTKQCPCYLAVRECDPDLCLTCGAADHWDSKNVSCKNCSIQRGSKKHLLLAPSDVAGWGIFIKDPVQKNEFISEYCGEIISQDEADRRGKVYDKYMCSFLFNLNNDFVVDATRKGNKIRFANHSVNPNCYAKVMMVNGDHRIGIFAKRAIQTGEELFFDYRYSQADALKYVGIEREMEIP
T1 sequence (O75530 whole entry partner): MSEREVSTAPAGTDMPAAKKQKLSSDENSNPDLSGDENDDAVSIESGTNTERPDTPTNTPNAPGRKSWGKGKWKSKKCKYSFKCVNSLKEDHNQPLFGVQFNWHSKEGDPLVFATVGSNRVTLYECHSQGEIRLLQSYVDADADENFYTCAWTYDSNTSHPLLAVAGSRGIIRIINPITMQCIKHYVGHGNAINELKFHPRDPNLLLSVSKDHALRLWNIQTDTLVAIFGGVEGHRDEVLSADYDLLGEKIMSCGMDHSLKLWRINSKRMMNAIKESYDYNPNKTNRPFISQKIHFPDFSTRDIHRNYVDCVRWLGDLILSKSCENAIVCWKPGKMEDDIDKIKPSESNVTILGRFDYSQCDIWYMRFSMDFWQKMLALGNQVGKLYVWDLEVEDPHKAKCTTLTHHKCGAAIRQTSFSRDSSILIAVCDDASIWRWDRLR
T1 sequence (Q15022 whole entry partner): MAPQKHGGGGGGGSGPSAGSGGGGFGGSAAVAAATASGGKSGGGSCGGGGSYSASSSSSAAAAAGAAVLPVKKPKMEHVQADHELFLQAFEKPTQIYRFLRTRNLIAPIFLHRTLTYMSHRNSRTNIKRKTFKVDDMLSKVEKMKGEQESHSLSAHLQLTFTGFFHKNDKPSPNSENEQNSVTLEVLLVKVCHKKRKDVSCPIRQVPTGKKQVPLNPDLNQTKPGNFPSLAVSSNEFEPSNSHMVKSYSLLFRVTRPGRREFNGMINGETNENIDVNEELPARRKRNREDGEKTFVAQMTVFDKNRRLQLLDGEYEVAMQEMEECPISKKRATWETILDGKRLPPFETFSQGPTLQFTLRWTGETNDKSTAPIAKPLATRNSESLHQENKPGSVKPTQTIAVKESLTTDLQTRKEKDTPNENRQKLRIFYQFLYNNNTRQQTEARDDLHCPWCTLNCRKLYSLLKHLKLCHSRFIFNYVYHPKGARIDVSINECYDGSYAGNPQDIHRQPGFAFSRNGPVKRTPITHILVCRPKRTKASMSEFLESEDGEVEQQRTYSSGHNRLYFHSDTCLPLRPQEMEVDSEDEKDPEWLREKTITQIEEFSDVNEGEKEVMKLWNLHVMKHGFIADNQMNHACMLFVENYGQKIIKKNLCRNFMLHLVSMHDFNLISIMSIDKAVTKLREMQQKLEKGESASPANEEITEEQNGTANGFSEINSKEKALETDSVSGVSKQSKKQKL
T1 sequence (Q09028 whole entry partner): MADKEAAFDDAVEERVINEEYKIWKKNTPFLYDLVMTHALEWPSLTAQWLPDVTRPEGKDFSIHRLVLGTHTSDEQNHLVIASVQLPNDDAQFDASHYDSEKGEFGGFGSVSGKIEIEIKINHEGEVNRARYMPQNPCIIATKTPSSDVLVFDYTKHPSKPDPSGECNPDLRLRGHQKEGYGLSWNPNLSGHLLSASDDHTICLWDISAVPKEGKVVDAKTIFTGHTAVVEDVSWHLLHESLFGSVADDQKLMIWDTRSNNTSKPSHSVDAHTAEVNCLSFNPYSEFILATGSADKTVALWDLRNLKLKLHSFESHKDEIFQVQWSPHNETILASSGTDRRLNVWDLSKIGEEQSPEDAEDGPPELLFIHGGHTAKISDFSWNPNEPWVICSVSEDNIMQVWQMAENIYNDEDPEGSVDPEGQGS
T1 sequence (Q6ZN18 whole entry partner): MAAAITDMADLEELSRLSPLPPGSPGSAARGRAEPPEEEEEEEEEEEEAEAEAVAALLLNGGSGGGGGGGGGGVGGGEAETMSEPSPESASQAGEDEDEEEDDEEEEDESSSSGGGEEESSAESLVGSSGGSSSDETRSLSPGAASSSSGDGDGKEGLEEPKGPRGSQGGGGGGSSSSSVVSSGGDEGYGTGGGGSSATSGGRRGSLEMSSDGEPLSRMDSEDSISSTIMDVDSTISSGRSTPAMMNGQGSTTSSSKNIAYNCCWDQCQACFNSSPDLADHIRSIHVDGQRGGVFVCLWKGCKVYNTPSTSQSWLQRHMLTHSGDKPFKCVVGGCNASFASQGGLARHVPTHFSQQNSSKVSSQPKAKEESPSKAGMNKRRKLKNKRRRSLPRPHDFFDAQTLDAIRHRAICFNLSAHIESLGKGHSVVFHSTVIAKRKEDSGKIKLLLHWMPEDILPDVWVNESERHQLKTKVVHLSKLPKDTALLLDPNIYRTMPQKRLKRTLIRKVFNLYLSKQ

Row | SMILES | IC50 [nM]
1 | CCC(c1scc(C(=O)NCc2c(C)cc(C)[nH]c2=O)c1C)C1CCN(CC(C)(C)F)CC1 (racemic) [Example 6, N-((4,6-Dimethyl-2-oxo-1,2-dihydropyridin-3-yl)methyl)-5-(1-(1-(2-fluoro-2-methylpropyl)piperidin-4-yl)propyl)-4-methylthiophene-3-carboxamide] | 50
2 | CCC(c1scc(C(=O)NCc2c(C)cc(C)[nH]c2=O)c1C)C1CCN(CC(F)(F)F)CC1 (racemic) [Example 11, N-((4,6-Dimethyl-2-oxo-1,2-dihydropyridin-3-yl)methyl)-4-methyl-5-(1-(1-(2,2,2-trifluoroethyl)piperidin-4-yl)propyl)thiophene-3-carboxamide] | 20
3 | CCC(c1scc(C(=O)NCc2c(C)cc(C)[nH]c2=O)c1C)C1CCN(CC(F)F)CC1 (racemic) [Example 14, 5-(1-(1-(2,2-Difluoroethyl)piperidin-4-yl)propyl)-N-((4,6-dimethyl-2-oxo-1,2-dihydropyridin-3-yl)methyl)-4-methylthiophene-3-carboxamide] | 40
4 | CCC(=C1CCN(CC(C)(F)F)CC1)c1scc(C(=O)NCc2c(C)cc(C)[nH]c2=O)c1C [Example 1, 5-(1-(1-(2,2-Difluoropropyl)piperidin-4-ylidene)propyl)-N-((4,6-dimethyl-2-oxo-1,2-dihydropyridin-3-yl)methyl)-4-methylthiophene-3-carboxamide] | 16
5 | CCC(=C1CCN(CC(C)(C)F)CC1)c1scc(C(=O)NCc2c(C)cc(C)[nH]c2=O)c1C [Example 2, N-((4,6-Dimethyl-2-oxo-1,2-dihydropyridin-3-yl)methyl)-5-(1-(1-(2-fluoro-2-methylpropyl)piperidin-4-ylidene)propyl)-4-methylthiophene-3-carboxamide] | ≤ 10
6 | CCC(=C1CCN(CC(F)(F)F)CC1)c1scc(C(=O)NCc2c(C)cc(C)[nH]c2=O)c1C [Example 3, N-((4,6-Dimethyl-2-oxo-1,2-dihydropyridin-3-yl)methyl)-4-methyl-5-(1-(1-(2,2,2-trifluoroethyl)piperidin-4-ylidene)propyl)thiophene-3-carboxamide] | ≤ 10
7 | CC[C@@H](c1scc(C(=O)NCc2c(C)cc(C)[nH]c2=O)c1C)C1CCN(CC(C)(F)F)CC1 [Example 4, (R)-5-(1-(1-(2,2-Difluoropropyl)piperidin-4-yl)propyl)-N-((4,6-dimethyl-2-oxo-1,2-dihydropyridin-3-yl)methyl)-4-methylthiophene-3-carboxamide] | 20
8 | CC[C@H](c1scc(C(=O)NCc2c(C)cc(C)[nH]c2=O)c1C)C1CCN(CC(C)(F)F)CC1 [Example 5, (S)-5-(1-(1-(2,2-Difluoropropyl)piperidin-4-yl)propyl)-N-((4,6-dimethyl-2-oxo-1,2-dihydropyridin-3-yl)methyl)-4-methylthiophene-3-carboxamide] | 501
9 | CCC(=C1CCN(N(C)C)CC1)c1scc(C(=O)NCc2c(C)cc(C)[nH]c2=O)c1C [Example 7, N-((4,6-Dimethyl-2-oxo-1,2-dihydropyridin-3-yl)methyl)-5-(1-(1-(dimethylamino)piperidin-4-ylidene)propyl)-4-methylthiophene-3-carboxamide] | 20
10 | CCC(=C1CCN(O)CC1)c1scc(C(=O)NCc2c(C)cc(C)[nH]c2=O)c1C [Example 8, N-((4,6-Dimethyl-2-oxo-1,2-dihydropyridin-3-yl)methyl)-5-(1-(1-hydroxypiperidin-4-ylidene)propyl)-4-methylthiophene-3-carboxamide] | 16
11 | CCC(c1sc2c(c1C)C(=O)N(Cc1c(C)cc(C)[nH]c1=O)CC2)N1CCC(N(C)C)CC1 (centres unmarked) [Example 9] | 50
12 | CCC(=C1CCC(O)CC1)c1scc(C(=O)NCc2c(C)cc(C)[nH]c2=O)c1C (centres unmarked) [Example 10, N-((4,6-Dimethyl-2-oxo-1,2-dihydropyridin-3-yl)methyl)-5-(1-(4-hydroxycyclohexylidene)propyl)-4-methylthiophene-3-carboxamide] | ≤ 10
13 | CCC(=C1CCN(Cc2ncco2)CC1)c1scc(C(=O)NCc2c(C)cc(C)[nH]c2=O)c1C [Example 12, N-((4,6-Dimethyl-2-oxo-1,2-dihydropyridin-3-yl)methyl)-4-methyl-5-(1-(1-(oxazol-2-ylmethyl)piperidin-4-ylidene)propyl)thiophene-3-carboxamide] | ≤ 10
14 | CCC(=C1CCN(c2ncccn2)CC1)c1scc(C(=O)NCc2c(C)cc(C)[nH]c2=O)c1C [Example 13, N-((4,6-Dimethyl-2-oxo-1,2-dihydropyridin-3-yl)methyl)-4-methyl-5-(1-(1-(pyrimidin-2-yl)piperidin-4-ylidene)propyl)thiophene-3-carboxamide] | 13
15 | CCC(=C1CCN(/C(=N/C#N)NC)CC1)c1scc(C(=O)NCc2c(C)cc(C)[nH]c2=O)c1C [Example 15, 5-(1-(1-(N′-Cyano-N-methylcarbamimidoyl)piperidin-4-ylidene)propyl)-N-((4,6-dimethyl-2-oxo-1,2-dihydropyridin-3-yl)methyl)-4-methylthiophene-3-carboxamide] | ≤ 10
16 | CCC(c1sc2c(c1C)C(=O)N(Cc1c(C)cc(C)[nH]c1=O)CC2)C1CCN(CC(C)(F)F)CC1 (centres unmarked) [Example 16, 2-(1-(1-(2,2-Difluoropropyl)piperidin-4-yl)propyl)-5-((4,6-dimethyl-2-oxo-1,2-dihydropyridin-3-yl)methyl)-3-methyl-6,7-dihydrothieno[3,2-c]pyridin-4(5H)-one] | 100
17 | CCC(c1sc2c(c1C)C(=O)N(Cc1c(C)cc(C)[nH]c1=O)CC2)C1CCN(CC(C)F)CC1 (centres unmarked) [Example 17, 5-((4,6-Dimethyl-2-oxo-1,2-dihydropyridin-3-yl)methyl)-2-(1-(1-(2-fluoropropyl)piperidin-4-yl)propyl)-3-methyl-6,7-dihydrothieno[3,2-c]pyridin-4(5H)-one] | 100
18 | CCC(c1sc2c(c1C)C(=O)N(Cc1c(C)cc(C)[nH]c1=O)CC2)C1CCN(/C(=N\C#N)NC)CC1 (centres unmarked) [Example 18, N′-Cyano-4-(1-(5-((4,6-dimethyl-2-oxo-1,2-dihydropyridin-3-yl)methyl)-3-methyl-4-oxo-4,5,6,7-tetrahydrothieno[3,2-c]pyridin-2-yl)propyl)-N-methylpiperidine-1-carboximidamide] | ≤ 10
19 | CCC(c1scc(C(=O)NCc2c(C)cc(C)[nH]c2=O)c1C)C1CCN(/C(=N\C#N)NC)CC1 (centres unmarked) [Example 19, 5-(1-(1-(N′-Cyano-N-methylcarbamimidoyl)piperidin-4-yl)propyl)-N-((4,6-dimethyl-2-oxo-1,2-dihydropyridin-3-yl)methyl)-4-methylthiophene-3-carboxamide] | 316
20 | CCC(=C1CCN(CC(F)F)CC1)c1scc(C(=O)NCc2c(C)cc(C)[nH]c2=O)c1C [Example 20, 5-(1-(1-(2,2-Difluoroethyl)piperidin-4-ylidene)propyl)-N-((4,6-dimethyl-2-oxo-1,2-dihydropyridin-3-yl)methyl)-4-methylthiophene-3-carboxamide] | ≤ 10
